Measured values taken from patent publication US20230003721A1, “MITOTHERAPEUTICS FOR THE TREATMENT OF BRAIN DISORDERS” (The University of Florida Research Foundation, Inc., priority 2019, published 2023).
Structures can show the parent of a compound that is named as a salt.

Key:
primary neurons [1] = experiment: TMRM fluorescence assay of inner mitochondrial membrane potential (ΔΨm); details: for TMRM Primary: primary screen; for TMRM Primary / TMRM Rescreen: 24 h; for Emax / EC50: Mus musculus, Primary neuron; for Emax: read-out: TMRM (Effect-size); for EC50: read-out: TMRM-EC50
[2] = system: primary forebrain neurons; experiment: cells; details: 12.5 μM; for Dendritic Mt CA / Neurite Area: rescreen, 24 h, vs DMSO wells; for confirmation in the re-screen: 10 replicate plates
Procedure: Primary forebrain cell culture and maintenance. Forebrains of P0 Mt or Mt/Ai14 pups without olfactory bulbs and meninges were collected and placed in ice cold Ca^2+ and Mg^2+ free HBSS supplemented with 2 μg/ml gentamicin, 25 mM D-glucose, 1 mM pyruvate and 20 mM HEPES. Brain tissue was digested with 0.6 mg/ml papain at 37° C. for 20 min. Forebrains were washed with plating media [Neurobasal (Gibco), 5% FBS, 4 mM GlutaMAX (Gibco), 2 μg/ml gentamicin]. The tissue was gently triturated, allowed to settle and the supernatant was filtered through a 40 μm mesh-sized cell strainer. Cells were centrifuged at 420×g for 4 min and resuspended in plating media. 15,000 cells per well were plated with 2×10^8 viral particles/ml onto black Greiner μClear (Cat #781946) or Ultra-Low Base Aurora with evaporation barrier (Cat #ABE201201B) 384-well plates (80 μl/well) pre-coated with poly-D-lysine for the primary screen and rescreen, respectively. Plating and media changes were performed using an automated Biomek FX^P liquid handling workstation. Four hr after plating, 75% of the plating media was replaced by feeding media [Neurobasal-A (Gibco), 4 mM GlutaMAX (Gibco), 2 μg/ml gentamicin, 2% B27 (Gibco)]. At DIV4, 50% of the media was exchanged with fresh feeding media supplemented with 16 μM 5-Fluoro-2′-deoxyuridine (FUdR) to prevent glial cell over-growth. At DIV8 and DIV12, additional 50% media changes were made without FUdR. Cells were maintained at 37° C. and 5% CO2; plates were topped with Breathe-Easy adhesive membranes (Greiner plates) to minimize evaporation.
Compounds and compound transfer.
Imaging. Images were captured using a GE Incell 6000 system (60× objective, 0.95 NA, 16-bit images) equipped with environmental control (37° C., 5% CO2). Mt-GFP (green channel) was imaged by confocal imaging (3 slices, Δz=0.7 μm, aperture=1.0 AU, λexc=488 nm, λem=515-535 nm). Cyto-tdTomato (red channel) and MitoTracker Orange (red channel) were imaged using confocal mode (3 slices, Δz=0.7 μm, aperture=1.0 AU, λexc=561 nm, λem=569-641 nm, MitoTracker Orange) or with widefield mode (Cyto-tdTomato). TMRM imaged for the co-localization experiments with Mt-GFP was imaged using the confocal mode (3 slices, […] aperture=1.0, λexc=488, λem=569-641 nm). For the live-dead assay, primary neurons were imaged with a 20× (widefield mode, NA 0.45) objective using λexc=561 nm and λem=569-641 nm for the propidium iodide stained dead cells (red channel), and λexc=488 nm and λem=515-535 nm for the fluorescein diacetate stained live cells (green channel). 10 fields were collected from each well, and 4 wells were imaged/condition in the live-dead assay. For all other experiments, 4 fields/well were imaged unless otherwise stated.
Automated data analysis pipeline. Most experiments utilized only Mt-GFP; some utilized both Mt-GFP and Cyto-tdTomato. The Z-projected images were preprocessed using a custom Fiji macro. For preprocessing of Mt-GFP images: background was subtracted (rolling ball, radius=3), images were median filtered (radius=1) and somatic mitochondria were removed. For removal of the somatic mitochondria, they were first segmented and then a somatic mitochondrial mask overlaid on the image.

primary neurons [3] = experiment: CellTiter-Glo luminescence-based ATP assay; assay type: cell-based, mouse; details: for ATP: ATP orthogonal screen, 24 h; for EC50 / Emax: Mus musculus, Primary neuron, dose response; for EC50: 15 concentrations from 6 nM to 100 uM; for Emax: maximal percent increase relative to in-plate DMSO controls, read-out: ATP (Effect-size)
How it was run: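 Primary neurons treated from DIV13 for 24 h with compound or DMSO. After part of the medium was removed, CellTiter-Glo reagent was added; plates were shaken 10 min at 200 rpm, kept 2 min in the dark at room temperature, and luminescence read as total ATP.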

primary neurons [4] = experiment: Mitochondrial morphology and neurite area after functional modulators; assay type: cell-based, mouse; design: key to Neurite Area: non-significant (n.s.); details: significant change
Procedure: Mitochondrial morphology and neurite area measurements. Mitochondrial morphology and neurite area were quantified using methods described by Varkuti et al, 2020. Briefly, Cre-dependent mitochondrial targeted GFP2 (mito-GFP) ROSA26 knock-in mice were crossed with Ai14 (007908, The Jackson Laboratory) expressing cytosolic-tdTomato, and the forebrain of P0 pups were isolated and primary neurons were cultured as described above. AAV9 virus containing the iCRE sequence driven by the neuron specific CaMKII promoter was added to the cell culture at plating and 75% of the media replaced 4 h after plating. […] Z-projected images of the green channel were preprocessed (background subtraction: rolling ball, radius=3; median filtering: radius=1) and somatic mitochondria were removed (see details in Varkuti et al, Science Advances 6 (2020) eaaw8702). Red channel images were also preprocessed (tubeness filter, soma removal). Preprocessed images were segmented by GE Developer software (object-based, kernel size: 3). […] The length and circularity measurements for mitochondria were aggregated using the median and the area for neurites using the sum. After removing empty fields and outlier values from the fields, aggregated field values were averaged to well values (4 fields/well, 12 wells/compound). Robust Z-scores were calculated using DMSO-treated wells for each well ((mediancompound−medianDMSO)/median absolute deviationDMSO), well values were averaged for each compound.
A high-content assay was developed in parallel to monitor aspects of mitochondrial dynamics in primary cultured neurons that conditionally express (Cre recombinase dependent) mitochondrial-tagged GFP and cytosolic tdTomato reporters (Varkuti et al., 2020). We monitored two aspects of neuritic mitochondrial dynamics: (1) the health of mitochondria as measured by the average circularity of axonal mitochondria, since defective mitochondria targeted for mitophagy become circular in shape, and (2) the balance between fission/fusion measured by the average length of dendritic mitochondria. […] FIG. 19A illustrates the results of surveying a collection of functional modulators selected from 5 different structural clusters (FIG. 17), quantified as robust z-scores relative to DMSO-treated control neurons.

Compound	TMRM Primary (primary neurons [1]; 12.5 μM) [Z-scores]	TMRM Rescreen (primary neurons [1]) [Z-scores]	Dendritic Mt CA [2] [robust Z-scores]	Neurite Area [2] [robust Z-scores]	ATP (primary neurons [3]) [Z-scores]	other results
Cc1ccc([C@@H]2O[C@H](CO)[C@@H](O)[C@H](O)[C@H]2O)cc1Cc1ccc(-c2ccc(F)cc2)s1 [CANAGLIFLOZIN]	4.55	6.36	2.93	0.74	3.13	
Clc1ccc(Cn2c(CN3CCCC3)nc3ccccc32)cc1 [CLEMIZOLE HYDROCHLORIDE]	3.54	5.90	2.54	−0.66	4.16	
CN1CCN(C(c2ccccc2)c2ccccc2)CC1 [CYCLIZINE]	3.41	5.91	2.82	−0.03	5.18	
COC(=O)C[C@H]1C(C)(C)[C@@H](OC(C)=O)[C@@H]2CC3C4CC(=O)O[C@@H](c5ccoc5)[C@]4(C)CCC3[C@@]1(C)C2=O (some centres unmarked) [DIHYDROFISSINOLIDE]	3.94	4.61	2.77	4.24	5.15	
CCCCCCOc1ccccc1C(N)=O [EXALAMIDE]	3.39	4.57	2.43	3.42	6.10	
CC[C@H]1CN2CC[C@H]1C[C@@H]2[C@@H](O)c1ccnc2ccc(OC)cc12 [HYDROQUINIDINE]			2.19	−0.15		
CC1=C(/C=C/C(C)=C/C=C/C(C)=C\C(=O)O)C(C)(C)CCC1 [ISOTRETINON]			2.69	0.77		
Nc1nnc(-c2cccc(Cl)c2Cl)c(N)n1 [LAMOTRIGINE]			4.75	1.00		
CC12CC3CC(C)(C1)CC(N)(C3)C2 [MEMANTINE HYDROCHLORIDE]			3.25	1.45		confirmation in the re-screen [2]: weak hits
CN1CCOC(c2ccccc2)c2ccccc2C1 (centres unmarked) [NEFOPAM]			3.74	−0.44		
CCN(CC)CCOCCOC(=O)C(CC)(CC)c1ccccc1.O=C(O)CC(O)(CC(=O)O)C(=O)O [OXELAIDIN CITRATE]	4.27	6.44	2.59	−1.31	2.73	
C#CCN(C)Cc1ccccc1 [PARGYLINE HYDROCHLORIDE]			3.75	2.51		
O=C(CCc1ccc(O)cc1)c1c(O)cc(O)cc1O [PHLORETIN]			2.73	1.23		
CN1CCC(=C2c3ccccc3Sc3ccccc32)CC1 [PIMETHIXENE MALEATE]	3.95	5.12	2.57	−2.10	4.56	
OC(CCN1CCCCC1)(c1ccccc1)c1ccccc1 [PRIDINOL METHANESULFONATE]	5.88	6.92	2.86	1.80	5.46	Emax (primary neurons [1]): 20.6%; EC50 (primary neurons [1]): 3.9 µM; EC50 (primary neurons [3]): 1.65 µM; Emax (primary neurons [3]): 15.7%
COc1ccc(CN(CCN(C)C)c2ccccn2)cc1 [PYRILAMINE MALEATE]			2.65	0.78		
COc1ccc(/C=C/c2cc(O)cc(O)c2)cc1 [RESVERATROL 4′-METHYL ETHER]			3.68	0.02		confirmation in the re-screen [2]: weak hits
COc1ccc2c(c1O)-c1c(OC)c(OC)cc3c1[C@H](C2)N(C)CC3 [S-ISOCORYDINE (+)]			2.82	0.78		
O=C(O[C@H]1CN2CCC1CC2)N1CCc2ccccc2[C@@H]1c1ccccc1 [SOLIFENACIN SUCCINATE]			5.06	1.42		
Cc1cccc(N(C)C(=S)Oc2ccc3ccccc3c2)c1 [TOLNAFTATE]			2.93	1.01		
Cc1cccc(C)c1N=C1NCCCS1 [XYLAZINE]			3.66	0.40		
CCCCOc1cc(C(=O)OCCN(CC)CC)ccc1N [benoxinate hydrochloride]	3.62	6.64			5.57	Emax (primary neurons [1]): 21%; EC50 (primary neurons [1]): 0.49 µM; Mitochondrial Morphology (primary neurons [4]): elongated; Neurite Area (primary neurons [4]): n.s.; EC50 (primary neurons [3]): 0.08 µM; Emax (primary neurons [3]): 21.4%
Cc1ccc(-c2cc(C(F)(F)F)nn2-c2ccc(S(N)(=O)=O)cc2)cc1 [celecoxib]	6.67	4.72			7.57	hit in TMRM primary screen when assayed at 4 h (primary neurons [1]; 12.5 μM, 4 h): celecoxib*; Emax (primary neurons [1]): 27.5%; EC50 (primary neurons [1]): 5.18 µM; Neurite Area (primary neurons [4]): n.s.; EC50 (primary neurons [3]): 0.49 µM; Emax (primary neurons [3]): 20.7%
AVOCATIN A			4.14	3.48		
